# According to patent US10966937B2, “Compositions and methods for delivery of polyunsaturated fatty acid derivatives and analogs” (Cytometix, Inc., priority 2015, dated 2021):
# Columns and labels:
# [1] = system: rodent model of fibromyalgia; assay: Rodent model of fibromyalgia (reserpine), mechanical allodynia, CMX-020 and Pregabalin; assay type: in vivo, male Sprague Dawley rats
# [2] = system: rodent model of osteoarthritis; assay: Rodent model of osteoarthritis (MIA), mechanical allodynia, CMX-020 and Tramadol; assay type: in vivo, male Sprague Dawley rats
# [3] = system: rodent model of spinal nerve ligation; assay: Spinal nerve ligation model, mechanical allodynia, CMX-020 and Duloxetine; assay type: in vivo, male Sprague Dawley rats
# Experimental: In FIGS. 14 and 15, groups of male Sprague Dawley rats underwent a spinal nerve ligation method of the left L5 and L6 spinal nerves, inducing a model of peripheral neuropathic pain. 1 weeks later treatment with CMX-020 and Duloxetine were administered either alone or in combination at various combinational doses and efficacy was tested using mechanical allodynia pain thresholds (Von Frey Filaments, up-down method). The method of Chou-Talalay and CompuSyn computer software were used to automate analysis of dose effect data for each individual drug and their combination. […] The fold reduction of Duloxetine in combination with CMX-020 is greater than 2-fold in efficacy ranges at and greater than 20% (FIG. 15).
# [4] = clinical; settings: both, human, in vivo, po
# [5] = system: rodent model of Chemotherapeutic induced pain; assay: Chemotherapeutic (paclitaxel) induced pain model, mechanical allodynia, CMX-020 and Duloxetine; assay type: in vivo, male Sprague Dawley rats
# Experimental: In FIGS. 16 and 17, groups of male Sprague Dawley rats received four daily consecutive injections of paclitaxel (1 mg/kg, ip), followed by a second series of four daily injections one week after the first injection, inducing a model of chemotherapeutic-induced peripheral neuropathy Animals were tested 2-3 days after receiving the last injection of paclitaxel with treatment of CMX-020 and Duloxetine administered either alone or in combination at various combinational doses and efficacy was tested using mechanical allodynia pain thresholds (Von Frey Filaments, up-down method). The method of Chou-Talalay and CompuSyn computer software were used to automate analysis of dose effect data for each individual drug and their combination. […] The fold reduction of Duloxetine in combination with CMX-020 is greater than 2-fold in efficacy ranges at and greater than 20% (FIG. 17).
# [6] = system: post-operative pain model; assay: Post-operative pain model (hindpaw incision), mechanical allodynia (Von Frey filament); assay type: in vivo, male Sprague Dawley rats; settings: CMX-020 intraduodenally at various doses in DHA TG, 3 hours post-surgery
# Experimental: In FIG. 7, groups of male Sprague Dawley rats were administered CMX-020 intraduodenally at various doses using high purity DHA in triglyceride form as the delivery vehicle. CMX-020 was measured in plasma to determine its concentrations immediately after the efficacy endpoint. Prior to administration, the rat's hindpaw was surgically incised and sutured. 3 hours post-surgery the rats were subjected to mechanical allodynia (Von Frey filament) assessment to quantify the analgesic effect of CMX-020 (% MPE=post drug threshold−baseline threshold/cutoff threshold−baseline threshold×100).
# [7] = Plasma exposure of CMX-020 from enterically coated softgels with DHA TG vehicle; assay type: in vivo, male cynomolgus monkey
# Experimental: In FIG. 5, groups of male cynomolgus monkey were administered CMX-020 (40 mg total dose) in enterically coated softgels at 10, 5 and 2.5% (w/w) using high purity DHA in triglyceride form as the delivery vehicle. CMX-020 was measured through time in plasma to determine its concentrations. FIG. 5 illustrates that the systemic exposure of CMX-020 in DHA TG at various concentrations provides suitable systemic exposure for more than 12 hours. In this study, the optimal concentration was 5% displaying an absolute bioavailability of 20%.
# [8] = efficacy ranges at and greater than 20%
smiles,measurement,setting,value
CCCCCC(=O)N(CC/C=C\C/C=C\C/C=C\CCCC(=O)NC1CC1)C(C)C [CMX-020],analgesic effect of the combinational therapy (isobologram),[1]; co-administered with Pregabalin,greater than a simple additive effect
same,analgesic effect of the combinational therapy (isobologram),"[2]; in combination with Tramadol, 2 weeks after MIA",greater than a simple additive effect
same,analgesic effect of the combinational therapy (isobologram),[3]; in combination with Duloxetine,greater than a simple additive effect
same,Tmax,[4],3.5 to 5.5 h
same,analgesic effect of the combinational therapy (isobologram),[5]; in combination with Duloxetine,greater than a simple additive effect
same,relation of systemic exposure to analgesic efficacy (% MPE),[6],positively correlates
same,duration of suitable systemic exposure,"[7]; CMX-020 40 mg total dose at 10, 5 and 2.5% (w/w) in DHA TG, monkey",more than 12 hours
same,bioavailability,"[7]; male, cynomolgus monkey, plasma, oral, CMX-020 40 mg total dose, 5% (w/w) in DHA TG, read-out: absolute bioavailability",20%
"CNCC[C@H](Oc1cccc2ccccc12)c1cccs1 [Duloxetine, reference compound]",fold reduction of Duloxetine in combination with CMX-020,[3]; [8],greater than 2 fold
same,fold reduction of Duloxetine in combination with CMX-020,[5]; [8],greater than 2 fold
"CC(C)C[C@H](CN)CC(=O)O [Pregabalin, reference compound]",fold reduction of Pregabalin in combination with CMX-020,[1]; efficacy ranges at and greater than 35%,greater than 2 fold
"COc1cccc(C2(O)CCCCC2CN(C)C)c1 (stereo not drawn) [Tramadol, reference compound]",fold reduction of Tramadol in combination with CMX-020,[2]; efficacy ranges at and greater than 10%,greater than 2 fold
